# Results from paper PMC9573813 (Molecular Diversity, 2022).
# Tests used:
# [1] = system: L. donovani intramacrophage amastigotes; assay type: cell-based, Leishmania donovani; details: CC50 RAW 264.7 / IC50 intramacrophage amastigotes
# [2] = Cytotoxicity evaluation on RAW 264.7 macrophages; assay type: cell-based; details: mouse
# [3] = Cytotoxicity, cell growth; assay type: cell-based; details: human, human embryonic lung (HEL) fibroblasts
SMILES,SI (CC50/IC50) [1],CC50 [2] [µM],CC50 [3] [µM]
"Cc1nn(Cc2ccc(O)c(C=O)c2)c(=O)[nH]c1=O [Compound 10, 2-Hydroxy-5-((6-methyl-3,5-dioxo-4,5-dihydro-1,2,4-triazin-2(3H)-yl)methyl) benzaldehyde]",1.87,56.1 ± 16.8,–
"Nc1nc2c(ncn2COCCO)c(=O)[nH]1 [Acyclovir (ACV), Acyclovir]",–,–,> 444
"O=Cc1cc(Cn2cc(F)c(=O)[nH]c2=O)ccc1O [Compound 9, 5-((5-Fluoro-2,4-dioxo-3,4-dihydropyrimidin-1(2H)-yl)methyl)-2-hydroxybenzaldehyde]",–,> 100,–
"O=Cc1cc(Cn2ccc(=O)[nH]c2=O)ccc1O [Compound 7, 5-((2,4-Dioxo-3,4-dihydropyrimidin-1(2H)-yl)methyl)-2-hydroxybenzaldehyde]",–,> 100,–
"Cc1cn(Cc2ccc(O)c(C=O)c2)c(=O)[nH]c1=O [Compound 8, 2-Hydroxy-5-((5-methyl-2,4-dioxo-3,4-dihydropyrimidin-1(2H)-yl)methyl) benzaldehyde]",–,> 100,–
"Nc1ccn(C[C@@H](CO)OCP(=O)(O)O)c(=O)n1 [Cidofovir (CDV), Cidofovir]",–,–,> 317
"Nc1nc(O)c2ncn(COC(CO)CO)c2n1 [Ganciclovir (GCV), Ganciclovir]",–,–,> 394
"CCCCCCCCCCCCCCCCOP(=O)([O-])OCC[N+](C)(C)C [Miltefosine, reference compound]",–,52.2 ± 11.1,–
